# Reference: the supplement of paper PMC10307832
# Legend:
# Assay in all cases: relative viability (nuclei count vs DMSO), 5 days (fraction); higher = more cells survive
# Wnt-C59 + Luminespib = compound: CC1=NC=CC(=C1)C2=CC=C(C=C2)CC(=O)NC3=CC=C(C=C3)C4=CN=CC=C4 [Wnt-C59] + CCNC(=O)c1noc(-c2cc(C(C)C)c(O)cc2O)c1-c1ccc(CN2CCOCC2)cc1 [Luminespib] (partner 0.01 µM)
# Procedure, shortened: (§1)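 A single step with final 0.05% Triton X-100, 1% formaldehyde and 1 ug/ml Hoechst fixed the cells and stained nuclei 5 days after treatment. Lung cancer cell lines in 1536-well plates had been treated by pin tool the day after seeding with one drug alone or a fixed anchor-drug dose plus five library-drug doses (not always all listed) in √10 steps, and nuclei were counted on 4× images. Relative viability is the ratio of nuclei in treated wells to nuclei in vehicle wells, taken as the median of duplicate plates.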
# Lapatinib + Luminespib = compound: CS(=O)(=O)CCNCc1ccc(-c2ccc3ncnc(Nc4ccc(OCc5cccc(F)c5)c(Cl)c4)c3c2)o1 [Lapatinib] + CCNC(=O)c1noc(-c2cc(C(C)C)c(O)cc2O)c1-c1ccc(CN2CCOCC2)cc1 [Luminespib] (partner 0.01 µM)
# Procedure, shortened: as §1
# Lapatinib + Phenformin = compound: CS(=O)(=O)CCNCc1ccc(-c2ccc3ncnc(Nc4ccc(OCc5cccc(F)c5)c(Cl)c4)c3c2)o1 [Lapatinib] + N=C(N)NC(=N)NCCc1ccccc1 [Phenformin] (partner 250 µM)
# Procedure, shortened: as §1
# Lapatinib + Vorinostat = compound: CS(=O)(=O)CCNCc1ccc(-c2ccc3ncnc(Nc4ccc(OCc5cccc(F)c5)c(Cl)c4)c3c2)o1 [Lapatinib] + O=C(CCCCCCC(=O)Nc1ccccc1)NO [Vorinostat] (partner 1 µM)
# Procedure, shortened: as §1
Cell Line,relative viability (Wnt-C59 + Luminespib; first compound 0.001 µM),relative viability (Wnt-C59 + Luminespib; first compound 0.01 µM),relative viability (Wnt-C59 + Luminespib; first compound 0.03162 µM),relative viability (Wnt-C59 + Luminespib; first compound 0.1 µM),relative viability (Lapatinib + Luminespib; first compound 0.02 µM),relative viability (Lapatinib + Luminespib; first compound 0.06325 µM),relative viability (Lapatinib + Luminespib; first compound 0.2 µM),relative viability (Lapatinib + Luminespib; first compound 0.6325 µM),relative viability (Lapatinib + Luminespib; first compound 2 µM),relative viability (Lapatinib + Phenformin; first compound 0.02 µM),relative viability (Lapatinib + Phenformin; first compound 0.06325 µM),relative viability (Lapatinib + Phenformin; first compound 0.2 µM),relative viability (Lapatinib + Phenformin; first compound 0.6325 µM),relative viability (Lapatinib + Phenformin; first compound 2 µM),relative viability (Lapatinib + Vorinostat; first compound 0.02 µM),relative viability (Lapatinib + Vorinostat; first compound 0.06325 µM),relative viability (Lapatinib + Vorinostat; first compound 0.2 µM),relative viability (Lapatinib + Vorinostat; first compound 0.6325 µM),relative viability (Lapatinib + Vorinostat; first compound 2 µM)
NCI-H1944,0.802,0.758,0.769,0.652,0.723,0.435,0.623,0.552,0.522,0.178,0.14,0.188,0.193,0.186,0.514,0.511,0.461,0.459,0.437
SK-LU-1,0.211,0.219,0.184,0.206,0.176,0.223,0.238,0.175,0.2,0.464,0.484,0.547,0.674,0.512,0.681,0.747,0.829,0.776,0.802
NCI-H1975,0.347,0.28,0.217,0.143,0.256,0.122,0.239,0.212,0.206,0.413,0.362,0.385,0.399,0.385,0.71,0.676,0.732,0.716,0.662
NCI-H322M,0.978,0.737,0.737,0.809,0.883,0.6,0.758,0.753,0.633,0.805,0.736,0.736,0.693,0.551,0.947,0.749,0.786,0.92,0.683
NCI-H1793,0.176,–,0.204,0.201,–,0.33,0.174,0.158,0.143,–,0.313,0.265,0.329,0.225,–,0.495,0.646,0.646,0.42
RERF-LC-KJ,1.2,1.38,1.23,1.18,1.13,1.25,1.16,1.2,0.797,0.406,0.39,0.469,0.35,0.369,0.543,0.632,0.673,0.647,0.601
NCI-H23,0.206,0.217,0.227,0.217,–,–,0.197,0.215,0.196,–,–,0.792,0.805,0.761,–,–,0.624,0.746,0.555
NCI-H2347,0.565,0.339,0.498,0.877,–,0.156,0.638,0.523,0.361,–,0.376,0.498,0.641,0.337,0.501,0.629,0.554,0.689,0.547
LCLC-97TM1,0.756,0.763,0.616,0.742,–,–,0.676,0.765,0.875,–,–,0.462,0.407,0.471,–,0.316,0.953,0.681,0.687
